Laboratory results taken from patent publication US10538535B2, “Antitumoral compounds” (priority 2017, dated 2020).
Like-named read-outs stand apart in the source and are kept apart here.

Protocol for A2780 tumors: (§1) Female athymic nu/nu mice (Harlan Laboratories Models, S. L. Barcelona, Spain or Envigo, Spain) were utilized for all experiments. Animal were housed in individually ventilated cages Sealsafe® Plus, Techniplast S.P.A.), up to ten per cage on a 12-hour light-dark cycle at 21-23° C. and 40-60% humidity. […] Animals were acclimated for at least 5 days prior to tumor implantation with a tumor cell suspension.
Culture cells were passaged every 3 to 5 days upon reaching confluence. Each animal was subcutaneously implanted (on the right flank using 26 G needle and a 1 cc syringe) at 4-6 weeks of age with 10×10^6 A2780 cells suspended in 0.05 mL of a solution consisting of 50% Matrigel® (Corning Incorporated Life Sciences) and 50% medium without serum or antibiotics.
(§2) Treatment tolerability was assessed by monitoring body weight evolution, clinical signs of systemic toxicity, as well as evidences of local damage in the injection site.
In xenograft studies with other cell lines: • Tumor volume was calculated using the equation (a·b^2)/2, where a: length (longest diameter) and b: width (shortest diameter) were measured in mm by using digital caliper (Fowler Sylvac, S235PAT).
(§3) Treatments producing >20% lethality and/or 20% net body weight loss were considered toxic.
Protocol for H460 tumors: as §1
H460 cells were maintained in vitro at 37° C. with 5% CO2 in Dulbecco's Modified Eagle's Medium (Sigma-Aldrich, Co). Culture cells were passaged every 3 to 5 days upon reaching confluence. Each animal was subcutaneously implanted (on the right flank using 26 G needle and a 1 cc syringe) at 4-6 weeks of age with 5×10^6 H460 cells suspended in 0.05 mL of a solution consisting of 50% Matrigel® (Corning Incorporated Life Sciences) and 50% medium without serum or antibiotics.
as §2, §3
Protocol for HGC27 tumors: as §1
HGC27 cells were maintained in vitro at 37° C. with 5% CO2 in Iscove's Modified Dulbecco's Medium (Sigma Aldrich, Co). Culture cells were passage every 3 to 5 days on reaching confluence. Each animal was subcutaneously implanted (on the right flank using 26 G needle and a 1 cc syringe) at 4-6 weeks of age with 5×10^6 HGC-27 cells suspended in 0.05 mL of a solution consisting of 50% Matrigel® (Corning Incorporated Life Sciences), 50% medium without serum or antibiotics.
as §2, §3

COc1c(C)cc2c(c1O)[C@@H]1[C@@H]3[C@@H]4SC[C@]5(N[C@@H](C)Cc6c5[nH]c5ccccc65)C(=O)OC[C@@H](c5c6c(c(C)c(OC(C)=O)c54)OCO6)N3[C@@H](O)[C@H](C2)N1C [D]
Median Tumor Volume (A2780 tumors; Table 26, Day 0, iv Days 0, 7, 14): 190.1 mm^3 | Median Tumor Volume (A2780 tumors; Table 26, Day 3, iv Days 0, 7, 14): 319.6 mm^3 | Median Tumor Volume (A2780 tumors; Table 26, Day 5, iv Days 0, 7, 14): 514.4 mm^3 | Median Tumor Volume (A2780 tumors; Table 26, Day 7, iv Days 0, 7, 14): 897.4 mm^3 | Median Tumor Volume (A2780 tumors; Table 26, Day 10, iv Days 0, 7, 14): 1239.8 mm^3 | Median Tumor Volume (A2780 tumors; Table 26, Day 12, iv Days 0, 7, 14): 1656.2 mm^3 | Median Tumor Volume (A2780 tumors; Table 26, Day 14, iv Days 0, 7, 14): 1951.7 mm^3 | Median Tumor Volume (A2780 tumors; Table 26, Day 17, iv Days 0, 7, 14): 2121.7 mm^3 | Median Tumor Volume (A2780 tumors; Table 26, Day 19, iv Days 0, 7, 14): 2068.6 mm^3 | Median Tumor Volume (A2780 tumors; iv, 0.5 mg/kg, 0 h): 168.8 mm^3 | Median Tumor Volume (A2780 tumors; iv, 0.5 mg/kg, 48 h): 225.7 mm^3 | Median Tumor Volume (A2780 tumors; iv, 0.5 mg/kg, 120 h): 256.6 mm^3 | Median Tumor Volume (A2780 tumors; iv, 0.5 mg/kg, 168 h): 473.8 mm^3 | Median Tumor Volume (A2780 tumors; iv, 0.5 mg/kg, 336 h): 1129.3 mm^3 | Median Tumor Volume (A2780 tumors; iv, 0.5 mg/kg, 384 h): 1198.6 mm^3 | Median Tumor Volume (A2780 tumors; iv, 0.5 mg/kg, 456 h): 1649.6 mm^3 | Median Tumor Volume (A2780 tumors; iv, 0.5 mg/kg, 504 h): 2025.0 mm^3 | Median Tumor Volume (H460 tumors; Table 24, Day 0, iv Days 0, 7, 14): 203.4 mm^3 | Median Tumor Volume (H460 tumors; Table 24, Day 2, iv Days 0, 7, 14): 367.3 mm^3 | Median Tumor Volume (H460 tumors; Table 24, Day 7, iv Days 0, 7, 14): 792.0 mm^3 | Median Tumor Volume (H460 tumors; Table 24, Day 9, iv Days 0, 7, 14): 854.6 mm^3 | Median Tumor Volume (H460 tumors; Table 24, Day 12, iv Days 0, 7, 14): 1026.7 mm^3 | Median Tumor Volume (H460 tumors; Table 24, Day 14, iv Days 0, 7, 14): 1175.8 mm^3 | Median Tumor Volume (H460 tumors; Table 24, Day 16, iv Days 0, 7, 14): 1322.1 mm^3 | Median Tumor Volume (H460 tumors; Table 24, Day 19, iv Days 0, 7, 14): 1581.1 mm^3 | Median Tumor Volume (H460 tumors; Table 24, Day 21, iv Days 0, 7, 14): 1789.3 mm^3 | Median Tumor Volume (H460 tumors; Table 24, Day 23, iv Days 0, 7, 14): 1966.5 mm^3 | Median Tumor Volume (H460 tumors; Table 24, Day 26, iv Days 0, 7, 14): 2080.7 mm^3 | Median Tumor Volume (H460 tumors; iv, 0.5 mg/kg, 0 h): 187.2 mm^3 | Median Tumor Volume (H460 tumors; iv, 0.5 mg/kg, 48 h): 329.7 mm^3 | Median Tumor Volume (H460 tumors; iv, 0.5 mg/kg, 120 h): 559.4 mm^3 | Median Tumor Volume (H460 tumors; iv, 0.5 mg/kg, 168 h): 756.5 mm^3 | Median Tumor Volume (H460 tumors; iv, 0.5 mg/kg, 336 h): 1626.8 mm^3 | Median Tumor Volume (H460 tumors; iv, 0.5 mg/kg, 384 h): 2025.0 mm^3 | Median Tumor Volume (HGC27 tumors; Table 28, Day 0, iv Days 0, 7, 14): 157.4 mm^3 | Median Tumor Volume (HGC27 tumors; Table 28, Day 2, iv Days 0, 7, 14): 327.6 mm^3 | Median Tumor Volume (HGC27 tumors; Table 28, Day 5, iv Days 0, 7, 14): 439.6 mm^3 | Median Tumor Volume (HGC27 tumors; Table 28, Day 7, iv Days 0, 7, 14): 418.7 mm^3 | Median Tumor Volume (HGC27 tumors; Table 28, Day 9, iv Days 0, 7, 14): 567.9 mm^3 | Median Tumor Volume (HGC27 tumors; Table 28, Day 12, iv Days 0, 7, 14): 537.0 mm^3 | Median Tumor Volume (HGC27 tumors; Table 28, Day 14, iv Days 0, 7, 14): 654.6 mm^3 | Median Tumor Volume (HGC27 tumors; Table 28, Day 16, iv Days 0, 7, 14): 672.4 mm^3 | Median Tumor Volume (HGC27 tumors; Table 28, Day 19, iv Days 0, 7, 14): 843.0 mm^3 | Median Tumor Volume (HGC27 tumors; Table 28, Day 21, iv Days 0, 7, 14): 842.7 mm^3 | Median Tumor Volume (HGC27 tumors; Table 28, Day 23, iv Days 0, 7, 14): 963.7 mm^3 | Median Tumor Volume (HGC27 tumors; Table 28, Day 26, iv Days 0, 7, 14): 1203.3 mm^3 | Median Tumor Volume (HGC27 tumors; Table 28, Day 28, iv Days 0, 7, 14): 1589.7 mm^3 | Median Tumor Volume (HGC27 tumors; Table 28, Day 30, iv Days 0, 7, 14): 1777.6 mm^3 | Median Tumor Volume (HGC27 tumors; Table 28, Day 33, iv Days 0, 7, 14): 2146.2 mm^3 | Median Tumor Volume (HGC27 tumors; iv, 0.5 mg/kg, 0 h): 194.0 mm^3 | Median Tumor Volume (HGC27 tumors; iv, 0.5 mg/kg, 48 h): 324.2 mm^3 | Median Tumor Volume (HGC27 tumors; iv, 0.5 mg/kg, 120 h): 561.6 mm^3 | Median Tumor Volume (HGC27 tumors; iv, 0.5 mg/kg, 168 h): 504.2 mm^3 | Median Tumor Volume (HGC27 tumors; iv, 0.5 mg/kg, 336 h): 1056.8 mm^3 | Median Tumor Volume (HGC27 tumors; iv, 0.5 mg/kg, 384 h): 1440.2 mm^3 | Median Tumor Volume (HGC27 tumors; iv, 0.5 mg/kg, 456 h): 1717.9 mm^3
